Active and inactive are the calls of the source. The calls are words filed in the database; no cut-off is given here.
Legend:
[1] = tested on: Mus musculus; assay: Reduction in circulating lymphocytes in Balb/c mouse blood at 30 mg/kg, po measured at 4 hrs by hematology analyzer based analysis; format: functional; design: scale not given: the % may be the effect or the level left
[2] = Drug metabolism in Balb/c mouse blood assessed as phosphate ester metabolite formation at 30 mg/kg, po measured at 4 hrs by LC-MS/MS analysis; format: ADME, organism-based; details: in vivo
[3] = AUC ratio in orally dosed Sprague-Dawley rat blood assessed as phosphate metabolite to parent compound; format: ADME, organism-based; details: in vivo, po
[4] = Drug metabolism in Balb/c mouse blood assessed as concentration of parent compound at 30 mg/kg, po measured at 24 hrs by LC-MS/MS analysis; format: ADME, organism-based; details: Balb/c, blood, read-out: Ct
[5] = Drug metabolism in Lewis rat blood assessed as concentration of parent compound at 3 mg/kg, po measured at 24 hrs by LC-MS/MS analysis
[6] = Drug metabolism in Lewis rat blood assessed as concentration of parent compound at 3 mg/kg, po measured at 4 hrs by LC-MS/MS analysis; format: ADME, organism-based; details: read-out: Ct
[7] = Terminal half-life in cynomolgus monkey at 1 mg/kg, iv; format: ADME, organism-based, Macaca fascicularis; details: in vivo, read-out: beta t1/2 (converted)
[8] = Ratio of drug metabolism in Balb/c mouse blood assessed as phosphate ester metabolite to parent drug at 0.5 mg/kg, po measured at 24 hrs by LC-MS/MS analysis; format: ADME, organism-based; details: in vivo
[9] = Ratio of drug metabolism in Lewis rat blood assessed as phosphate ester metabolite to parent drug at 3 mg/kg, po measured at 24 hrs by LC-MS/MS analysis; format: ADME, organism-based; details: in vivo
[10] = Terminal half-life in beagle dog at 1 mg/kg, iv; format: ADME, organism-based, Canis lupus familiaris; details: in vivo, read-out: beta t1/2 (converted)
[11] = Drug metabolism in Balb/c mouse blood assessed as concentration of parent compound at 0.5 mg/kg, po measured at 24 hrs by LC-MS/MS analysis; format: ADME, organism-based; details: read-out: Ct
[12] = tested on: Mus musculus; assay: Reduction in circulating lymphocytes in Balb/c mouse blood at 0.5 mg/kg, po measured at 24 hrs by hematology analyzer based analysis; format: functional; design: scale not given: the % may be the effect or the level left
[13] = AUC ratio in orally dosed cynomolgus monkey blood assessed as phosphate metabolite to parent compound; format: ADME, organism-based, Macaca fascicularis; details: in vivo, po
[14] = AUC ratio in orally dosed Beagle dog blood assessed as phosphate metabolite to parent compound; format: ADME, organism-based, Canis lupus familiaris; details: in vivo, po
[15] = Drug metabolism in Balb/c mouse blood assessed as concentration of parent compound at 0.5 mg/kg, po measured at 4 hrs by LC-MS/MS analysis; format: ADME, organism-based; details: in vivo, BLD = below limit of detection
[16] = Half-life in Lewis rat at 3 mg/kg, po measured over 72 hrs by LC-MS/MS analysis; format: ADME, organism-based; details: in vivo
[17] = Ratio of drug metabolism in Balb/c mouse blood assessed as phosphate ester metabolite to parent drug at 30 mg/kg, po measured at 24 hrs by LC-MS/MS analysis; format: ADME, organism-based; details: in vivo
[18] = tested on: Rattus norvegicus; assay: Reduction in circulating lymphocytes in Lewis rat blood at 3 mg/kg, po measured at 4 hrs by hematology analyzer based analysis; format: functional; design: scale not given: the % may be the effect or the level left
[19] = tested on: Mus musculus; assay: Reduction in circulating lymphocytes in Balb/c mouse blood at 30 mg/kg, po measured at 24 hrs by hematology analyzer based analysis; format: functional; design: scale not given: the % may be the effect or the level left
[20] = tested on: Rattus norvegicus; assay: Reduction in circulating lymphocytes in Lewis rat blood at 3 mg/kg, po measured at 24 hrs by hematology analyzer based analysis; format: functional; design: scale not given: the % may be the effect or the level left
[21] = Drug metabolism in Balb/c mouse blood assessed as concentration of parent compound at 30 mg/kg, po measured at 4 hrs by LC-MS/MS analysis; format: ADME, organism-based; details: Balb/c, blood, read-out: Ct
[22] = Drug metabolism in Balb/c mouse blood assessed as concentration of phosphate ester metabolite formation at 0.5 mg/kg, po measured at 24 hrs by LC-MS/MS analysis; format: ADME, organism-based; details: in vivo
[23] = tested on: Mus musculus; assay: Reduction in circulating lymphocytes in Balb/c mouse blood at 0.5 mg/kg, po measured at 4 hrs by hematology analyzer based analysis; format: functional; design: scale not given: the % may be the effect or the level left
[24] = Drug metabolism in Balb/c mouse blood assessed as concentration of phosphate ester metabolite formation at 30 mg/kg, po measured at 24 hrs by LC-MS/MS analysis; format: ADME, organism-based; details: in vivo
[25] = Terminal half-life in Sprague-Dawley rat at 1 mg/kg, iv; format: ADME, organism-based; details: in vivo, read-out: beta t1/2 (converted)
[26] = tested on: Rattus norvegicus; assay: Drug metabolism in Lewis rat blood assessed as concentration of phosphate ester metabolite formation at 3 mg/kg, po measured at 4 hrs by LC-MS/MS analysis; details: in vivo
[27] = Drug metabolism in Balb/c mouse blood assessed as concentration of phosphate ester metabolite at 0.5 mg/kg, po measured at 4 hrs by LC-MS/MS analysis; format: ADME, organism-based; details: in vivo, BLD = below limit of detection
[28] = Pulmonary toxicity in Lewis rat assessed as elevation of BAL protein level at 3 mg/kg by advia1800 chemistry analyzer; format: organism-based; details: in vivo
[29] = AUC ratio in orally dosed human blood assessed as phosphate metabolite to parent compound; format: ADME, organism-based; details: po
[30] = tested on: Mus musculus; assay: Immunosuppressive activity in MOG (35 to 55 residues)/pertussis toxin-induced experimental autoimmune encephalomyelitis C57BL/6 mouse model assessed as reduction in formation of inflammatory lesions in CNS at 1 mg/kg, po QD starting from day 1 post immunization and measured thrice weekly until day 24; format: functional, organism-based
[31] = tested on: Rattus norvegicus; assay: Reduction in circulating lymphocytes in Lewis rat blood assessed as effective dose after oral dosing measured at 24 hrs by hematology analyzer based analysis; format: functional
[32] = Cardiotoxicity in human iPSC derived cardiomyocytes assessed as reduction in beating rate at 10 nM measured over 2 hrs by multi-electrode array relative to control; format: toxicity, cell-based; design: scale not given: the % may be the effect or the level left; details: stem cell-derived cardiomyocyte, 0.01 µM
[33] = tested on: Cerebellar cortex; assay: Induction of remyelination in lysophosphatidylcholine-induced demyelination in wild-type CD1 mouse organotypic cerebellar slice assessed as myelination index at 0.01 to 10 nM incubated for 7 days by immunohistochemistry based three-dimensional brain cell culture assay (reference value: 50%); format: functional; details: dose 0.01-10 nM, time 7 day
[34] = target: T1, Sphingosine 1-phosphate receptor 4 (Homo sapiens, UniProt O95977); assay: Agonist activity at human recombinant S1P4 expressed in CHO cell membranes assessed as stimulation of [35S]-GTPgammaS binding measured after 45 mins by liquid scintillation counting assay; format: functional, Cell membrane
T1 sequence (O95977 whole entry): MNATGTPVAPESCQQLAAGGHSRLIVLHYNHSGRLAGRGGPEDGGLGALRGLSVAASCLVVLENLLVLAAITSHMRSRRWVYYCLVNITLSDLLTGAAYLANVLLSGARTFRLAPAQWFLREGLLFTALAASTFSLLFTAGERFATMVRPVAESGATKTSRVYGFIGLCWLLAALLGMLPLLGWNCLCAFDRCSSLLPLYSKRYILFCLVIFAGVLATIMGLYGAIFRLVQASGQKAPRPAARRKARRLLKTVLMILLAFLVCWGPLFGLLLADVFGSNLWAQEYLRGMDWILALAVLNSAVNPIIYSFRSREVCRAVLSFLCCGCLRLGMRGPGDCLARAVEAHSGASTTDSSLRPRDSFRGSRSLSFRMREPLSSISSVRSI

[35] = Cardiotoxicity in human iPSC derived cardiomyocytes assessed as reduction in beating rate at 1 nM measured over 2 hrs by multi-electrode array relative to control; format: toxicity, cell-based; design: scale not given: the % may be the effect or the level left; details: stem cell-derived cardiomyocyte, 0.001 µM
[36] = tested on: Cerebellar cortex; assay: Induction of remyelination in lysophosphatidylcholine-induced demyelination in wild-type CD1 mouse organotypic cerebellar slice at 0.01 to 10 nM incubated for 7 days by immunohistochemistry based three-dimensional brain cell culture assay; format: functional, tissue-based; details: dose 0.01-10 nM, time 7.0 day

With `CCCCCC[C@@H]1CCc2cc([C@H]3CC[C@](N)(CO)C3)ccc2C1` [BMS-986104] the Activity [1] was 88%, the Drug metabolism [2] was 150 nM and the “Ratio AUC” value [3] was 2.5. For the same molecule, the concentration at 24 h [4] was 1200 nM, the Ct [5] was 160 nM and the concentration at 4 h [6] was 130 nM. The half-life [7] was 131 h, the Ratio [8] was 1 and the Ratio [9] was 1.6. The half-life [10] was 131 h, the concentration at 24 h [11] was 19 nM and the Activity [12] was 73%. The “Ratio AUC” value [13] was 0.3, the “Ratio AUC” value [14] was 2.4 and the Ct [15] was “Bld”. For the same molecule, the half-life [16] was greater than 75 h, the Ratio [17] was 0.5 and the Activity [18] was 48%. It also gave an Activity [19] of 90%, an Activity [20] of 82% and a concentration at 4 h [21] of 1000 nM. It also gave a Drug metabolism [22] of 20 nM, an Activity [23] of 17% and a Drug metabolism [24] of 620 nM. The half-life [25] was 131 h, the Drug metabolism [26] was 90 nM and the Drug metabolism [27] was “Bld”.
In the case of `CCCCCCCCc1ccc(CCC(N)(CO)CO)cc1` [FINGOLIMOD], the “Ratio AUC” value [3] is reported as 5.6, the Activity [28] is reported as 12.5 mg/dL and the “Ratio AUC” value [13] is reported as 5.9. The “Ratio AUC” value [14] was 3.7, the “Ratio AUC” value [29] was 0.42 and the Activity [30] was “Active”. The ED50 [31] was 0.1 mg/kg.
`CCCCCCCCc1ccc(CC[C@](N)(CO)COP(=O)(O)O)cc1` [FTY720-P] gave an Activity [32] of 62%, an Activity [33] of 100% and an EC50 [34] of 1.6 nM. The Activity [35] was 38% and the Activity [36] was “Active”.

— ChEMBL document CHEMBL4765241, “Identification and Preclinical Pharmacology of ((1 R,3 S)-1-Amino-3-(( S)-6-(2-methoxyphenethyl)-5,6,7,8-tetrahydronaphthalen-2-yl)cyclopentyl)methanol (BMS-986166): A Differentiated Sphingosine-1-phosphate Receptor 1 (S1P) Modulator Advanced into Clinical Trials” (J Med Chem, 2019)
